# Patent US10487088B2, “Tricyclic compound serving as immunomodulator” (Chia Tai Tianqing Pharmaceutical Group Co., Ltd., priority 2016, dated 2019)
# pIC50: −log10 of the molar value.
# Target: T1, recombinant human IDO1 enzyme (Homo sapiens, UniProt P14902)
# T1 construct: purchased NTRC NTRC-hlDO-10K
# Experiment: In vitro hIDO1 enzyme activity test (NFK Green fluorescence)
# Type: biochemical
# Details: recombinant human IDO1, L-tryptophan substrate, pH 6.5
# Experimental: The change of NFK production was detected by using the NFK Green™ fluorescent molecule, which is the metabolite of the IDO1 enzyme, and the IC50 value of the compound was used as an index, to evaluate the inhibitory effect of the compound on the recombinant human IDO1 enzyme.
# IDO1 Enzyme Activity Assay Kit, NTRC # NTRC-hlDO-10K;
# The compound was diluted to 1 mM in DMSO, and then diluted 3-fold in duplicate wells, with 10 gradients. 48 μL of 50 mM phosphate buffer (pH 6.5) was transferred to the compound plate via Bravo automated liquid handling platform. 2 μL of the diluted solution of the compound in DMSO was then added and mixed, followed by transferring 10 μL therein to an enzyme reaction plate.
# The IDO1 enzyme was diluted to 20 nM in the reaction buffer (50 mM phosphate buffer pH 6.5, 0.1% Tween-20, 2% glycerol, 20 mM ascorbic acid, 20 μg/mL catalase and 20 μM methylene blue), and 20 μL of the solution was transferred to an enzyme reaction plate and incubated at 23° C. for 30 min. The reaction was started by adding 10 μL of 400 μM L-type tryptophan substrate and incubated at 23° C. for 90 min. 10 μL of NFK Green™ fluorescent dye was added, and the plate was sealed with the sealing film, incubated at 37° C. for 4 h, and then read on Envision Multimode Plate Reader (Ex 400 nm/Em 510 nm).
# The control wells with the IDO1 enzyme but no compound was set as 0% inhibition, and the control wells without the IDO1 enzyme was set as 100% inhibition, and the IC50 value of the compound was calculated by analyzing the data with XLFit 5.
# T1 sequence (P14902 whole entry): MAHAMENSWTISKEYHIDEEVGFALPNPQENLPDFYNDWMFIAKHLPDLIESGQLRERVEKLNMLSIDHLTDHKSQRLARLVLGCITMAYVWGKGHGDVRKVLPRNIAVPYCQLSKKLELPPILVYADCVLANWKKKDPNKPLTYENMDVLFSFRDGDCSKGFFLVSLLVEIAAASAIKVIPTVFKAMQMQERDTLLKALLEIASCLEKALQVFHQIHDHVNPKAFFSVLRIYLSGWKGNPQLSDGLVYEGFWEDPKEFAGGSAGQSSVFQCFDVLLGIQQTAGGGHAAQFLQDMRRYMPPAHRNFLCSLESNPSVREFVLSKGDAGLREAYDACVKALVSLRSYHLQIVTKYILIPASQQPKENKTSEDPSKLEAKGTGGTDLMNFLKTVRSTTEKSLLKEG
row,pIC50,SMILES
1,< 5.00,"OC1CC(C2c3sccc3-c3cncn32)C1 (single isomer, unassigned) [Example 59, 3-(8H-thieno[3,4]pyrrolo[1,5-a]imidazol-8-yl)cyclobutanol]"
2,< 5.00,"OC1CC(C2c3sccc3-c3cncn32)C1 (single isomer, unassigned) [Example 60, 3-(8H-thieno[3,4]pyrrolo[1,5-a]imidazol-8-yl)cyclobutanol]"
3,5.92,"OC1CC(C2c3sccc3-c3cncn32)C1 (single isomer, unassigned) [Example 61, 3-(8H-thieno[3,4]pyrrolo[1,5-a]imidazol-8-yl)cyclobutanol]"
4,< 5.00,"OC1CCCC(C2c3sccc3-c3cncn32)C1 (single isomer, unassigned) [Example 64, 3-(8H-thieno[3′,2′:3,4]pyrrolo[1,2-c]imidazol-8-yl)cyclohexanol]"
5,5.26,"OC1CCCC(C2c3sccc3-c3cncn32)C1 (single isomer, unassigned) [Example 65, 3-(8H-thieno[3′,2′:3,4]pyrrolo[1,2-c]imidazol-8-yl)cyclohexanol]"
6,< 5.00,"OC1CCCC(C2c3sccc3-c3cncn32)C1 (single isomer, unassigned) [Example 66, 3-(8H-thieno[3′,2′:3,4]pyrrolo[1,2-c]imidazol-8-yl)cyclohexanol]"
7,6.79,"OC1CCCC(C2c3sccc3-c3cncn32)C1 (single isomer, unassigned) [Example 67, 3-(8H-thieno[3′,2′:3,4]pyrrolo[1,2-c]imidazol-8-yl)cyclohexanol]"
8,5.74,"OC1CCCC(C2c3sccc3-c3cncn32)C1 (single isomer, unassigned) [Example 68, 3-(8H-thieno[3′,2′:3,4]pyrrolo[1,2-c]imidazol-8-yl)cyclohexanol]"
9,5.63,"OC1CCCC(C2c3sccc3-c3cncn32)C1 (single isomer, unassigned) [Example 69, 3-(8H-thieno[3′,2′:3,4]pyrrolo[1,2-c]imidazol-8-yl)cyclohexanol]"
10,5.96,"OC1CCCC(C2c3sccc3-c3cncn32)C1 (single isomer, unassigned) [Example 70, 3-(8H-thieno[3′,2′:3,4]pyrrolo[1,2-c]imidazol-8-yl)cyclohexanol]"
11,< 5.00,"OC1CCCC(C2c3sccc3-c3cncn32)C1 (single isomer, unassigned) [Example 71, 3-(8H-thieno[3′,2′:3,4]pyrrolo[1,2-c]imidazol-8-yl)cyclohexanol]"
12,6.59,"c1cc2c(s1)C(C1CCCC1)n1cncc1-2 (single isomer, unassigned) [Example 74, 8-cyclopentyl-8H-thieno[3,4]pyrrolo[1,5-a]imidazole]"
13,< 5.00,"c1cc2c(s1)C(C1CCCC1)n1cncc1-2 (single isomer, unassigned) [Example 75, 8-cyclopentyl-8H-thieno[3,4]pyrrolo[1,5-a]imidazole]"
14,6.05,"FC1(F)[C@@H]2C[C@H](C3c4sccc4-c4cncn43)C[C@@H]21 (single isomer, unassigned) [Example 76, 8-(6,6-difluoro-3-bicyclo[3.1.0]cyclohexyl)-8H-thieno[3,4]pyrrolo[1,5-a]imidazole (cis)]"
15,< 5.00,"CC1(C)CC(C2c3sccc3-c3cncn32)CCO1 (single isomer, unassigned) [Example 78, 8-(2,2-dimethyltetrahydropyran-4-yl)-8H-thieno[3,4]pyrrolo[1,5-a]imidazole]"
16,< 5.00,"CC1(C)CC(C2c3sccc3-c3cncn32)CCO1 (single isomer, unassigned) [Example 79, 8-(2,2-dimethyltetrahydropyran-4-yl)-8H-thieno[3,4]pyrrolo[1,5-a]imidazole]"
17,5.30,"CC1(C)CC(C2c3sccc3-c3cncn32)CCO1 (single isomer, unassigned) [Example 80, 8-(2,2-dimethyltetrahydropyran-4-yl)-8H-thieno[3,4]pyrrolo[1,5-a]imidazole]"
18,5.08,"CC1(C)CC(C2c3sccc3-c3cncn32)CCO1 (single isomer, unassigned) [Example 81, 8-(2,2-dimethyltetrahydropyran-4-yl)-8H-thieno[3,4]pyrrolo[1,5-a]imidazole]"
19,5.81,"OC1CCCCC1C1c2sccc2-c2cncn21 (single isomer, unassigned) [Example 82]"
20,5.90,"OC1CCCCC1C1c2sccc2-c2cncn21 (single isomer, unassigned) [Example 83]"
21,6.34,"OC1CCCCC1C1c2sccc2-c2cncn21 (single isomer, unassigned) [Example 84]"
22,6.26,"c1ccc(N2CCC(C3c4sccc4-c4cncn43)CC2)cc1 (single isomer, unassigned) [Example 86, 8-(1-phenylpiperidin-4-yl)-8H-thieno[3′,2′:3,4]pyrrolo[1,2-c]imidazole]"
23,< 5.00,"c1ccc(N2CCC(C3c4sccc4-c4cncn43)CC2)cc1 (single isomer, unassigned) [Example 87, 8-(1-phenylpiperidin-4-yl)-8H-thieno[3′,2′:3,4]pyrrolo[1,2-c]imidazole]"

# The remaining lines, values behind:
row,SMILES,pIC50
1,"c1cc2c(s1)C(C1CCCOC1)n1cncc1-2 (single isomer, unassigned) [Example 35, 8-(tetrahydro-2H-pyran-3-yl)-8H-thieno[3′,2′:3,4]pyrrolo[1,2-c]imidazole]",5.55
2,"c1cc2c(s1)C(C1CCCOC1)n1cncc1-2 (single isomer, unassigned) [Example 36, 8-(tetrahydro-2H-pyran-3-yl)-8H-thieno[3′,2′:3,4]pyrrolo[1,2-c]imidazole]",5.61
3,"c1cc2c(s1)C(C1CCOCC1)n1cncc1-2 (single isomer, unassigned) [Example 37, 8-tetrahydropyran-4-8H-thieno[3,4]pyrrolo[1,5-a]imidazole]",5.62
4,"c1cc2c(s1)C(C1CCOCC1)n1cncc1-2 (single isomer, unassigned) [Example 38, 8-tetrahydropyran-4-8H-thieno[3,4]pyrrolo[1,5-a]imidazole]",< 5.00
5,"FC1(F)CCC([C@@H]2c3sccc3-c3cncn32)CC1 (single isomer, unassigned) [Example 40]",< 5.00
6,"OCC1(C2c3sccc3-c3cncn32)CCCCC1 (single isomer, unassigned) [Example 43, [1-(8H-thieno[3,4]pyrrolo[1,5-a]imidazol-8-yl)cyclohexyl]methanol]",< 5.00
7,"c1cc2c(s1)C(C1CCC3(CC1)CC3)n1cncc1-2 (single isomer, unassigned) [Example 44, 8-spiro[2.5]octan-6-yl-8H-thieno[3,4]pyrrolo[1,5-a]imidazole]",< 5.00
8,"c1cc2c(s1)C(C1CCC3(CC1)CC3)n1cncc1-2 (single isomer, unassigned) [Example 45, 8-spiro[2.5]octan-6-yl-8H-thieno[3,4]pyrrolo[1,5-a]imidazole]",5.42
9,"c1cc2c(s1)C(C13CCC(CC1)CC3)n1cncc1-2 (single isomer, unassigned) [Example 48, 8-(4-bicyclo[2.2.2]octyl)-8H-thieno[3,4]pyrrolo[1,5-a]imidazole]",6.29
10,"c1cc2c(s1)C(C13CCC(CC1)CC3)n1cncc1-2 (single isomer, unassigned) [Example 49, 8-(4-bicyclo[2.2.2]octyl)-8H-thieno[3,4]pyrrolo[1,5-a]imidazole]",< 5.00
11,"OC1CCCCC1C1c2sccc2-c2cncn21 (single isomer, unassigned) [Example 50, 2-(8H-thieno[3,4]pyrrolo[1,5-a]imidazol-8-yl)cyclohexanol]",< 5.00
12,"OC1CCCCC1C1c2sccc2-c2cncn21 (single isomer, unassigned) [Example 51, 2-(8H-thieno[3,4]pyrrolo[1,5-a]imidazol-8-yl)cyclohexanol]",< 5.00
13,"OC1CCCCC1C1c2sccc2-c2cncn21 (single isomer, unassigned) [Example 52, 2-(8H-thieno[3,4]pyrrolo[1,5-a]imidazol-8-yl)cyclohexanol]",6.17
14,"c1ccc2c(c1)CCC(C1c3sccc3-c3cncn31)C2 (single isomer, unassigned) [Example 54, 8-tetrahydronaphthalen-2-yl-8H-thieno[3,4]pyrrolo[1,5-a]imidazole]",< 5.00
15,"c1ccc2c(c1)CCC(C1c3sccc3-c3cncn31)C2 (single isomer, unassigned) [Example 55, 8-tetrahydronaphthalen-2-yl-8H-thieno[3,4]pyrrolo[1,5-a]imidazole]",< 5.00
16,"c1ccc2c(c1)CCC(C1c3sccc3-c3cncn31)C2 (single isomer, unassigned) [Example 56, 8-tetrahydronaphthalen-2-yl-8H-thieno[3,4]pyrrolo[1,5-a]imidazole]",6.07
17,"c1ccc2c(c1)CCC(C1c3sccc3-c3cncn31)C2 (single isomer, unassigned) [Example 57, 8-tetrahydronaphthalen-2-yl-8H-thieno[3,4]pyrrolo[1,5-a]imidazole]",6.05
18,"OC1CC(C2c3sccc3-c3cncn32)C1 (single isomer, unassigned) [Example 58, 3-(8H-thieno[3,4]pyrrolo[1,5-a]imidazol-8-yl)cyclobutanol]",5.68
